{"source": "patent US6043045A", "about": "“Screening methods for the identification of novel antibiotics” (The Scripps Research Institute, priority 1998, dated 2000)", "type_in_all_cases": "biochemical", "key": {"KinA [1]": {"target": "T1, KinA (Bacillus subtilis, UniProt P16497)", "T1 construct": "made in house", "T1 sequence (P16497 1-606)": "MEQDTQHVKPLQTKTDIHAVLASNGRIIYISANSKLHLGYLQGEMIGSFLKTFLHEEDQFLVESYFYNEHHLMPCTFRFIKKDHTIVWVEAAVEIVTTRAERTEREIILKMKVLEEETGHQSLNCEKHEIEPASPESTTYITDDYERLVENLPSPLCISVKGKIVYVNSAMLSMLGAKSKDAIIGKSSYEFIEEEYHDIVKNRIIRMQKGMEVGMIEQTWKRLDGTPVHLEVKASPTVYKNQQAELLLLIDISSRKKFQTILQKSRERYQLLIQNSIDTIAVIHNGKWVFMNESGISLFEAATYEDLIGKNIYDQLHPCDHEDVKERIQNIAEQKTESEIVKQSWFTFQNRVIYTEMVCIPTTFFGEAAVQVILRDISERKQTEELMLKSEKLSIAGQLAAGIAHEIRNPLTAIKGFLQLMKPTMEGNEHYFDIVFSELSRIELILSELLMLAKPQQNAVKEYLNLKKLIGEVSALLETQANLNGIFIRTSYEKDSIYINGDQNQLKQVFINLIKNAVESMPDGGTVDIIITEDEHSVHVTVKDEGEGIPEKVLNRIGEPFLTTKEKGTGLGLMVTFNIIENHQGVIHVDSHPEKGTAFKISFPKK", "experiment": "biochemical", "experimental": "The reactions were performed in a 25 μl final volume containing 100 mM Tris pH 8.0, 100 mM KCl, 2 mM MgCl2, 0.5 mM dithiothreitol, 10% (v/v) glycerol, 0.1 % (w/v) gelatin, 4% (v/v) ethanol, 200 μM total ATP containing approximately 1.5 μCi [gamma-^32 P]ATP (New England Nuclear, 6000 Ci/mMol, 150 μCi/ml), 300 μM SpoOF protein and 0.04 μM KinA protein (Perego, et al., J. Bacteriol. 171: 6187-6196 (1989)) unless otherwise indicated. Fatty acids were added to varying final concentration from solutions made with 100% ethanol (the 4% ethanol concentration in the reaction mixture reflects these addition, or in the case of controls, the addition of ethanol alone). The reactions were initiated by addition of the ATP and incubated for thirty minutes at room temperature.\nWhen higher KinA concentrations were used, the time of incubation was adjusted accordingly. The reactions were stopped by adding an equal volume of loading dye (0.25 M Tris pH 6.8, 20% (v/v) glycerol, 1% sodium dodecyl sulfate (w/v), 140 mM β-mercaptoethanol, 0.05% (w/v) bromophenol blue) and aliquots were loaded onto polyacrylamide gels (5% stacking, 15% separating, using the buffer system of Laemmi, Id., 1970).\nThe gels were run for approximately 16 hours at 10 mA constant current. The gels were covered with plastic wrap and subjected to autoradiography using Kodak XOmat RP1 film. Quantitation of activity was accomplished by cutting gels slices containing the appropriate phosphoprotein (usually SpoOF~P, see Section E below) and counting the Cerenkov radiation in a Beckman LF7500 scintillation counter (Beckman Instruments, Fullerton, Calif.). Equal-sized slices from blank areas of the gels were also counted and used to adjust for background. Percentage of activity was calculated using the value of the control reaction as 100%.\nTo quantify our initial assessment of inhibitory properties, the I0.5 values (at 4×10^-8 M KinA) were determined for each of the fatty acids. […] For example, the percent activity at an indicated oleic acid concentration is the ratio (×100) of the incorporation of ^32 P (from [γ^32 P]ATP) into the SpoOF protein relative to the incorporation in the control reaction containing no inhibitor. Typically, data are gathered from at least two different experiments. The I0.5 value is the concentration--e.g., the oleic acid concentration--corresponding to 50% activity as determined from the relevant graph."}, "KinA [2]": {"target": "T1, KinA", "experiment": "KinA autophosphorylation assay at higher KinA concentration and ATP competition series", "experimental": "The above-noted experiments were performed using a KinA concentration of […]. At this concentration, a band corresponding to KinA~P was not visible on the autoradiographs. Therefore, it could not be determined if the inhibition occurred at the KinA autophosphorylation step or at the phosphotransferase reaction between KinA~P and SpoOF. To address this question, assays were performed using a higher KinA concentration (1×10^-6 M). The prevention of stable autophosphorylation of KinA by oleic acid was confirmed. Data was gathered which verified the incorporation of ^32 P from [γ^32 P]ATP into the KinA protein in the presence of SpoOF and differing concentrations of oleic acid (not shown). The assay was performed as disclosed hereinabove, except that the KinA concentration was increased to 1×10^-6 M and the incubation time was shortened to three minutes.\nTo determine the nature of the fatty acid inhibition of autophosphorylation, three series of reactions were performed. In the first series, no oleic acid was present; the second contained 2.5×10^-5 M oleic acid; the third contained 7.0×10^-5 M oleic acid. […] Even at the lowest oleic acid concentration (2.5×10^-5 M) and highest ATP level (2×10^-3 M), the KinA was greater than 95% inhibited."}, "KinA [3]": {"target": "T1, KinA", "experiment": "Test whether fatty acids serve as substrate for KinA-catalyzed phosphorylation (heptane partition)", "details": "KinA 2 μM, no SpoOF, radioactivity in organic phase", "experimental": "To determine if fatty acids served as a substrate for KinA-catalyzed phosphorylation, the following method was used. The above reaction conditions were employed except that no SpoOF was present; the KinA was at 2 μM and the reactions incubated for 5 minutes prior to the addition of fatty acids. After this initial incubation, to allow autophosphorylation to occur, 48 μl aliquots were added to tubes containing (a) two μl ethanol; (b) 2 μl of 2% oleic acid; and (c) 2 μl of 2% palmitic acid. The reactions were allowed to incubate 10 minutes after which time 0.5 ml H2 O and 0.5 ml heptane were added to each. After 10 minutes at room temperature, the phases were separated by centrifugation. The aqueous phases were washed with H2 O-saturated heptane and the heptane phases washed with heptane-saturated H2 O. The Cerenkov radiation in each phase and wash was determined.\nOleic acid was added to a reaction mixture containing KinA~[^32 P], and after a suitable incubation, the mixture was separated into organic and aqueous phases (as described above). Under the conditions used, fatty acid species would partition into the organic phase leaving the KinA~P and unincorporated [γ^32 P]ATP in the aqueous phase. The amount of radioactivity in the organic phase containing oleic acid was negligible and no different from the amount present in the control reactions (data not shown)."}, "KinA~P": {"target": "T2, KinA~P (Bacillus subtilis, UniProt P16497)", "T2 construct": "made in house", "experiment": "Dephosphorylation of preformed KinA~P", "details": "oleic acid 2.5×10^-4M, no SpoOF", "experimental": "Next, the ability of oleic acid to enhance the dephosphorylation of preformed KinA~P was investigated. Autophosphorylation of in the presence of [γ^32 P]ATP was allowed to proceed for 60 minutes in the absence of SpoOF. At the end of this incubation, the reaction was divided into two aliquots, one receiving oleic acid to a final concentration of 2.5×10^-4M. Samples from each were withdrawn at timed intervals, fractionated on polyacrylamide gels, the KinA bands excised and the incorporated radioactivity determined."}}, "note": "Entries after “also recorded” stand apart in the source; their conditions may differ.", "data": [{"smiles": "CCCCCCCC/C=C\\CCCCCCCC(=O)O", "note": "[cis-9-octadecanoic]", "values": [{"measurement": "inhibitory effect on KinA in vitro (in words)", "setting": "KinA [1]", "value": "potent inhibitors"}, {"measurement": "IC50", "setting": "KinA [1]; Table 4, I0.5 at 4×10^-8 M KinA, 32P incorporation into SpoOF, read-out: Fatty Acid Inhibitors of KinA Activity (category by I0.5)", "value": "< 70", "unit": "µM"}, {"measurement": "inhibition of KinA phosphorylation of SpoOF (in words)", "setting": "KinA [1]; tested at 0.08% final concentration", "value": "essentially complete inhibition"}, {"measurement": "inhibition of KinA", "setting": "KinA [2]; 2.5×10^-5 M oleic acid, highest ATP level 2×10^-3 M", "value": "greater than 95%"}, {"measurement": "competition of inhibition with ATP", "setting": "KinA [2]; ATP 2×10^-5 to 2×10^-3 M, oleic acid 2.5×10^-5 and 7.0×10^-5 M", "value": "ATP is not competitive with oleic acid inhibition"}, {"measurement": "phosphotransfer from KinA~P to SpoOF", "setting": "KinA [2]; KinA 1×10^-6 M", "value": "can also inhibit the phosphotransfer from KinA~P to SpoOF"}, {"measurement": "formation of KinA~P and SpoOF~P", "setting": "KinA [2]; KinA 1×10^-6 M, 3 min, differing oleic acid concentrations", "value": "inhibits the formation of KinA~P and SpoOF~P in a concentration-dependent fashion; also recorded: acts to inhibit the autophosphorylation of KinA"}, {"measurement": "substrate for KinA catalyzed phosphorylation", "setting": "KinA [3]", "value": "did not serve as a substrate"}, {"measurement": "loss of 32P from preformed KinA~P versus reaction without oleic acid", "setting": "KinA~P", "value": "no significant difference"}]}]}
